Experimental data as given in patent US12630563B2, “Macrocyclic RIP2-kinase inhibitors” (Oncodesign S.A., priority 2020, dated 2026).

The compounds below were run against T1, recombinant hRIPK2 protein (kinase domain aa 1-299-His-tagged) (Homo sapiens, UniProt O43353) (assay: RIPK2 AlphaLISA assay (displacement of bead-bound CZC-8004 from hRIPK2)). Details: recombinant hRIPK2 kinase domain 10 nM, 2 h at 23° C.
T1 construct: kinase domain aa 1-299-His-tagged; purchased Life Technologies PR7829A
Format: binding
Method in brief: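 His-tagged kinase domain (10 nM, as diluted) was mixed with compound (0.8% DMSO), acceptor beads bearing the probe CZC-8004 and Ni2+ donor beads. After 2 h at 23 °C, AlphaLISA signal was read. Loss of signal reflects displacement of the probe from RIPK2.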

T1 sequence (O43353 1-299): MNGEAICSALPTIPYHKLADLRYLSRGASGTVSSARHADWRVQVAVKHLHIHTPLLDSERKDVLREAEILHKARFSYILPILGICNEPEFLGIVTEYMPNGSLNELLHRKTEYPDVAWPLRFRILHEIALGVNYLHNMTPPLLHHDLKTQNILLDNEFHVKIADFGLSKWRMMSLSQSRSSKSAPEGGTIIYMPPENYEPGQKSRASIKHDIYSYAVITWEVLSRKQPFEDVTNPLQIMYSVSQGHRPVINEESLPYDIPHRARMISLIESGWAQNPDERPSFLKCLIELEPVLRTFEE

Row | IC50 [µM] | SMILES
1 | < 0.01 | C#Cc1cc2cc(c1)-c1cnn3ccc(nc13)OC[C@@H]1C[C@@H](OCC)C(=O)N1CCN2 [Example 72, (12R,14S)-12-ethoxy-4-ethynyl-16-oxa-7,10,20,21,24-pentaazapentacyclo[15.5. 2.1^2,6.0^10,^14.0^20,^23]pentacosa-21-heptaen-11-one]
2 | < 0.01 | CCO[C@@H]1C[C@H]2COc3ccn4ncc(c4n3)-c3cc(C#N)cc(c3)NCCN2C1=O [Example 23, (12R,14S)-12-ethoxy-11-oxo-16-oxa-7,10,20,21,24-pentaazapentacyclo[15.5.2.1^2,6.0^10,^14.0^20,^23]pentacosa-1(23),2,4,6(25),17(24),18,21-heptaene-4-carbonitrile]
3 | < 0.01 | CO[C@@H]1C[C@H]2COc3ccn4ncc(c4n3)-c3cc(cc(-n4cccn4)c3)NCCN2C1=O [Example 41, (12R,14S)-12-methoxy-4-(1H-pyrazol-1-yl)-16-oxa-7,10,20,21,24-pentaazapentacyclo[15.5.2.1^2,6.0^10,^14.0^20,^23]pentacosa-1(23),2(25),3,5,17(24),18,21-heptaen-11-one]
4 | < 0.01 | COCCO[C@@H]1C[C@H]2COc3ccn4ncc(c4n3)-c3cc(cc(OC)c3)NCCN2C1=O [Example 47, (12R,14S)-4-methoxy-12-(2-methoxyethoxy)-16-oxa-7,10,20,21,24-pentaazapentacyclo[15.5.2.1^2,6.0^10,^14.0^20,^23]pentacosa-1(23),2(25),3,5,17(24),18,21-heptaen-11-one]
5 | < 0.01 | [2H]C([2H])([2H])Oc1cc2cc(c1)-c1cnn3ccc(nc13)OC[C@@H]1C[C@@H](OCC)C(=O)N1CCN2 [Example 94, (12R,14S)-12-ethoxy-4-(^2H3)methoxy-16-oxa-7,10,20,21,24-pentaazapentacyclo[15.5.2.1^2,6.0^10,^14.0^20,^23]pentacosa-1(23),2(25),3,5,17(24),18,21-heptaen-11-one]
6 | < 0.01 | [2H]C([2H])([2H])Oc1cc2cc(c1)-c1cnn3ccc(nc13)OC[C@@H]1C[C@@H](OCCOC)C(=O)N1CCN2 (racemic) [Example 95, (12R,14S)-4-(^2H3)methoxy-12-(2-methoxyethoxy)-16-oxa-7,10,20,21,24-pentaazapentacyclo[15.5.2.1^2,6.0^10,^14.0^20,^23]pentacosa-1(23),2(25),3,5,17(24),18,21-heptaen-11-one]
7 | 0.01 to 0.1 | CCc1cc2cc(c1)-c1cnn3ccc(nc13)OC[C@@H]1C[C@@H](OC)C(=O)N1CCN2 [Example 21, (12R,14S)-4-ethyl-12-methoxy-16-oxa-7,10,20,21,24-pentaazapentacyclo[15.5.2.1^2,6.0^10,^14.0^20,^23]pentacosa-1(23),2,4,6(25),17(24),18,21-heptaen-11-one]
8 | < 0.01 | CCO[C@H]1C[C@H]2COc3ccn4ncc(c4n3)-c3cc(cc(OC)c3)NCCN2C1=O [Example 121, (12S,14S)-12-ethoxy-4-methoxy-16-oxa-7,10,20,21,24-pentaazapentacyclo[15.5.2.1^2,6.0^10,^14.0^20,^23]pentacosa-1(23),2,4,6(25),17(24),18,21-heptaen-11-one]
9 | < 0.01 | CO[C@H]1C[C@H]2COc3ccn4ncc(c4n3)-c3cc(F)cc(c3)NCCN2C1=O [Example 25, (12S,14S)-4-fluoro-12-methoxy-16-oxa-7,10,20,21,24-pentaazapentacyclo[15.5.2.1^2,6.0^10,^14.0^20,^23]pentacosa-1(23),2(25),3,5,17(24),18,21-heptaen-11-one]
10 | < 0.01 | CCO[C@@H]1C[C@H]2COc3ccn4ncc(c4n3)-c3cc(cc(C(=O)N(C)C)c3)NCCN2C1=O [Example 58, (12R,14S)-12-ethoxy-N,N-dimethyl-11-oxo-16-oxa-7,10,20,21,24-pentaazapentacyclo[15.5.2.1^2,6.0^10,^14.0^20,^23]pentacosa-1(23),2(25),3,5,17(24),18,21-heptaene-4-carboxamide]
11 | < 0.01 | O=C1[C@H](OCC2COC2)C[C@H]2COc3ccn4ncc(c4n3)-c3cc(F)cc(c3)NCCN12 [Example 91, (12R,14S)-4-fluoro-12-(oxetan-3-ylmethoxy)-16-oxa-7,10,20,21,24-pentaazapentacyclo[15.5.2.1^2,6.0^1°,^14.0^2°,^23]pentacosa-1(23),2(25),3,5,17(24),18,21-heptaen-11-one]
12 | < 0.01 | COCC1C[C@H]2COc3ccn4ncc(c4n3)-c3cc(F)cc(c3)NCCN2C1=O (single isomer, unassigned) [Example 31]

Further lines, the compound ahead of its results:

Row | SMILES | IC50 [µM]
13 | COc1cc2cc(c1)-c1cnn3cc(OC)c(nc13)OC[C@@H]1C[C@@H](OCCN(C)C)C(=O)N1CCN2 [Example 135, (12R,14S)-12-[2-(dimethylamino)ethoxy]-4,18-dimethoxy-16-oxa-7,10,20,21,24-pentaazapentacyclo[15.5.2. 1^2,6.0^10,^14.0^20,^23]pentacosa-1(23),2,4,6(25),17(24),18, 21-heptaen-11-one] | < 0.01
14 | CO[C@@H]1C[C@H]2COc3ccn4ncc(c4n3)-c3cc(cc(OCc4cccnc4)c3)NCCN2C1=O [Example 44, (12R,14S)-12-methoxy-4-(pyridin-3-ylmethoxy)-16-oxa-7,10,20,21,24-pentaazapentacyclo[15.5.2.1^2,6.0^1°,^14.0^2°,^23]pentacosa-1 (23),2(25),3,5,17(24),18,21-heptaen-11-one] | 0.01 to 0.1
15 | CO[C@@H]1C[C@H]2COc3ccn4ncc(c4n3)-c3cc(cc(C(=O)N(C)CC4CC4)c3)NCCN2C1=O [Example 61, (12R,14S)-N-(cyclopropylmethyl)-12-methoxy-N-methyl-11-oxo-16-oxa-7,10,20,21,24-pentaazapentacyclo[15.5.2.1^2,6.0^10,^14.0^20,^23]pentacosa-1(23),2,4,6(25),17(24),18,21-heptaene-4-carboxamide] | 0.1 to 11
16 | CO[C@@H]1C[C@H]2COc3ccn4ncc(c4n3)-c3cc(F)cc(c3)N(C(C)=O)CCN2C1=O [Example 74, (12R,14S)-7-acetyl-4-fluoro-12-methoxy-16-oxa-7,10,20,21,24-pentaazapentacyclo[15.5.2.1^2,6.0^1°,^14.0^2°,^23]pentacosa-1(23),2,4,6(25),17(24),18,21-heptaen-11-one] | 0.01 to 0.1
17 | COc1cc2cc(c1)-c1cnn3ccc(nc13)OC[C@@H]1C[C@@H](OC)C(=O)N1CC(C)N2 (single isomer, unassigned) [Example 106, (8R*,12R,14S)-4,12-dimethoxy-8-methyl-16-oxa-7,10,20,21,24-pentaazapentacyclo[15.5.2.1^2,6.0^1°,^14.0^2°,^23]pentacosa-1(23),2,4,6(25),17(24),18,21-heptaen-11-one] | 0.01 to 0.1
18 | COCCO[C@@H]1C[C@H]2COc3nc4c(cnn4cc3OCCO)-c3cc(cc(OC)c3)NCCN2C1=O [Example 139, (12R,14S)-18-(2-hydroxyethoxy)-4-methoxy-12-(2-methoxyethoxy)-16-oxa-7,10,20,21,24-pentaazapentacyclo[15.5.2.1^2,6.0^1°,^14.0^2°,^23]pentacosa-1(23),2,4,6(25),17(24),18,21-heptaen-11-one] | < 0.01
19 | COc1cc2cc(c1)-c1cnn3cc(C)c(nc13)OC[C@@H]1C[C@@H](OC)C(=O)N1CCN2 [Example 19, (12R,14S)-4,12-dimethoxy-18-methyl-16-oxa-7,10,20,21,24-pentaazapentacyclo[15.5.2.1^2,6.0^10,^14.0^20,^23]pentacosa-1(23),2(25),3,5,17(24),18,21-heptaen-11-one] | < 0.01
20 | COc1cc2cc(c1)-c1cnn3cc(OC)c(nc13)OC[C@@H]1C[C@@H](OC)C(=O)N1CCN2 [Example 133, (12R,14S)-4,12,18-trimethoxy-16-oxa-7,10,20,21,24-pentaazapentacyclo[15.5.2. 1^2,6.0^10,^14.0^20,^23]pentacosa-1(23),2,4,6(25),17(24),18, 21-heptaen-11-one] | < 0.01
21 | CO[C@@H]1C[C@H]2C(C)Oc3ccn4ncc(c4n3)-c3cc(F)cc(c3)NCCN2C1=O (relative stereo) [Example 103, E1-(12R,14S,15R*)-4-fluoro-12-methoxy-15-methyl-16-oxa-7,10,20,21,24-pentaazapentacyclo[15.5.2.1^2,6.0^10,^14.0^20,^23]pentacosa-1(23),2,4,6(25),17(24),18,21-heptaen-11-one] | 0.01 to 0.1
22 | CO[C@@H]1C[C@H]2COc3ccn4ncc(c4n3)-c3cc(cc(F)c3F)NCCN2C1=O [Example 15, (12R,14S)-3,4-difluoro-12-methoxy-16-oxa-7,10,20,21,24-pentaazapentacyclo[15.5.2.1^2,6.0^10,^14.0^20,^23]pentacosa-1(23),2,4,6(25),17(24),18,21-heptaen-11-one] | 0.01 to 0.1
23 | COCCc1cn2ncc3c2nc1OC[C@@H]1C[C@@H](OC)C(=O)N1CCNc1cc-3cc(-n2cccn2)c1 [Example 78, (12R,14S)-12-methoxy-18-(2-methoxyethyl)-4-(1H-pyrazol-1-yl)-16-oxa-7,10,20,21,24-pentaazapentacyclo[15.5. 2.1^2,6.0^10,^14.0^20,^23]pentacosa-1(23),2(25),3,5,17(24),18, 21-heptaen-11-one] | < 0.01
24 | COc1cc2cc(c1)-c1cnn3ccc(nc13)OC[C@@H]1C[C@@H](OC)C(=O)N1CC(C)N2 (stereo partly drawn) [Example 89, (12R,14S)-4,12-dimethoxy-8-methyl-16-oxa-7,10,20,21,24-pentaazapentacyclo[15.5.2.1^2,6.0^1°,^14.0^2°,^23]pentacosa-1(23),2,4,6(25),17(24),18,21-heptaen-11-one] | < 0.01
25 | COCCO[C@@H]1C[C@H]2COc3nc4c(cnn4cc3OC)-c3cc(cc(OC)c3)NCCN2C1=O (racemic) [Example 117, (12R,14S)-4,18-dimethoxy-12-(2-methoxyethoxy)-16-oxa-7,10,20,21,24-pentaazapentacyclo[15.5.2.1^2,6.0^10,^14.0^20,^23]pentacosa-1(23),2,4,6(25),17(24),18,21-heptaen-11-one] | < 0.01
